Results reported in USRE48461E1, “Modulation of androgen receptor expression” (Ionis Pharmaceuticals, Inc., priority 2012, dated 2021).

Assays:
Type in all cases: cell-based, human
LNCaP cells = assay: LNCaP cell proliferation (complete or CSS+DHT medium); settings: 5 days; for Proliferation (% untreated control) in LNCaP cells cultured in CSS + DHT medium: CSS + 1 nM DHT medium
Description: After a treatment period of 5 days in complete medium or CSS+1 nM DHT medium, the proliferative capacity of the cancer cells was measured with using CellTiter 96® AQueous One Solution or CellTiter-Glo® solution Cell Proliferation kit (Promega), following the manufacturer's instructions. […] Treatment with ISIS oligonucleotides in CSS+DHT medium reduced the proliferative capacity to a greater extent than treatment with MVD-3100. The proliferative capacity of cells cultured in CSS medium without DHT is 17% of untreated control levels.

AR V7 variant mRNA = assay: AR V7 variant RNA in VCaP cells; settings: RNAiMax, 48 hrs
Description: Cells were plated at 10,000 cells per well. […] ISIS 549148 was included as a negative control. After an incubation period of 48 hrs, RNA levels of full length AR, the V7 variant, PSA and TMPRSS2 were measured.
A separate set of cells was treated with MDV-3100 at 0.04 μM, 0.2 μM, 1.0 μM, or 5.0 μM. After an incubation period of 48 hrs, RNA levels of full length AR, the V7 variant, PSA and TMPRSS2 were measured. The data is presented in Tables 108 expressed as percent expression of gene levels compared to the untreated control.
Cells were plated at 15,000 cells per well and cultured in CSS media for 16 hours. […] ISIS 549148 was included as a negative control. After 4 hrs, 1 nM DHT was added. […] After an incubation period of 48 hrs, RNA levels of AR, PSA and TMPRSS2 were measured. […]

PSA mRNA = assay: PSA expression in VCaP cells; settings: RNAiMax, 48 hrs
Description: (§1) Cells were plated at 10,000 cells per well. […] After an incubation period of 48 hrs, RNA levels of full length AR, the V7 variant, PSA and TMPRSS2 were measured.
(§2) After an incubation period of 48 hrs, RNA levels of full length AR, the V7 variant, PSA and TMPRSS2 were measured. The data is presented in Tables 108 expressed as percent expression of gene levels compared to the untreated control.
(§3) Cells were plated at 15,000 cells per well and cultured in CSS media for 16 hours. […] After 4 hrs, 1 nM DHT was added. […] After an incubation period of 48 hrs, RNA levels of AR, PSA and TMPRSS2 were measured.

TMPRSS2 mRNA [1] = assay: TMPRSS2 mRNA levels in LMR20 cells; settings: with or without DHT/R1881
Description: LMR20 cells were plated at 1,500 cells per well in phenol red-free medium with CSS.

TMPRSS2 mRNA [2] = assay: TMPRSS2 expression in VCaP cells; settings: RNAiMax, 48 hrs
Description: as §1, §2, §3

[3] = system: prostate-specific antigen (PSA) mRNA; assay: Time-course PSA expression in C4-2B cells
Description: C4-2B cells were plated at 1,000 cells per well in complete medium. […] ISIS 549148 was included as a negative control. […] After a treatment period of 8 hours, 24 hours, and 48 hours, AR expression was measured with primer probe set hAR-LTS00943. Results are presented in Tables 70-72 as percent expression of AR, relative to non-treated cells.
Expression analysis of prostate-specific antigen (PSA) and TMPRSS2 were also analyzed. Results are presented in Tables 73-75 as percent inhibition of PSA expression and Tables 76-78 as percent inhibition of TMPRSS2 expression, relative to non-treated cells.

AR mRNA = assay: AR RNA expression in C4-2 cells (complete, CSS+DHT medium); settings: 48 hrs; for Percent expression of AR: C4-2 cells, CSS + DHT medium
Description: Cells were plated at 1,000 cells per well. […] After an incubation period of 48 hrs, RNA levels of AR, PSA and TMPRSS2 were measured.
Cells were plated at 2,000 cells per well and cultured in CSS media with 1 nM DHT. […] After an incubation period of 48 hrs, RNA levels of AR, PSA and TMPRSS2 were measured.

TTGATTTAATGGTTGC [ISIS 560131] (MOE and (S)-cEt gapmer chemistry, further chemistry not given here) [targets intron 1]
Proliferation (% untreated control) in LNCaP cells cultured in CSS + DHT medium (LNCaP cells; 0.04 μM): 97 % untreated control | Proliferation (% untreated control) in LNCaP cells cultured in CSS + DHT medium (LNCaP cells; 0.2 μM): 81 % untreated control | Proliferation (% untreated control) in LNCaP cells cultured in CSS + DHT medium (LNCaP cells; 1 μM): 46 % untreated control | Proliferation (% untreated control) in LNCaP cells cultured in CSS + DHT medium (LNCaP cells; 5.0 μM): 8 % untreated control | proliferation of LNCaP cells (LNCaP cells; complete medium or CSS+1 nM DHT): reduced proliferation of the cells in a dose dependent compared to the control | Proliferation (% untreated control) in LNCaP cells cultured in complete medium (LNCaP cells; 0.04 μM): 96 % untreated control | Proliferation (% untreated control) in LNCaP cells cultured in complete medium (LNCaP cells; 0.2 μM): 70 % untreated control | Proliferation (% untreated control) in LNCaP cells cultured in complete medium (LNCaP cells; 1 μM): 48 % untreated control | Proliferation (% untreated control) in LNCaP cells cultured in complete medium (LNCaP cells; 5.0 μM): 45 % untreated control | Percent inhibition of AR V7 variant (AR V7 variant mRNA; CSS + DHT medium, 1.34 nM): 27% | Percent inhibition of AR V7 variant (AR V7 variant mRNA; CSS + DHT medium, 4.0 nM): 31% | Percent inhibition of AR V7 variant (AR V7 variant mRNA; CSS + DHT medium, 13.4 nM): 39% | Percent inhibition of AR V7 variant (AR V7 variant mRNA; CSS + DHT medium, 40 nM): 41% | Percent inhibition of AR V7 variant (AR V7 variant mRNA; complete medium, 1.34 nM): 0% | Percent inhibition of AR V7 variant (AR V7 variant mRNA; complete medium, 4.0 nM): 57% | Percent inhibition of AR V7 variant (AR V7 variant mRNA; complete medium, 13.4 nM): 78% | Percent inhibition of AR V7 variant (AR V7 variant mRNA; complete medium, 40 nM): 84% | Percent inhibition of PSA expression (PSA mRNA; CSS + DHT medium, 1.34 nM): 0% | Percent inhibition of PSA expression (PSA mRNA; CSS + DHT medium, 4.0 nM): 35% | Percent inhibition of PSA expression (PSA mRNA; CSS + DHT medium, 13.4 nM): 69% | Percent inhibition of PSA expression (PSA mRNA; CSS + DHT medium, 40 nM): 73% | Percent inhibition of PSA expression (PSA mRNA; complete medium, 1.34 nM): 2% | Percent inhibition of PSA expression (PSA mRNA; complete medium, 4.0 nM): 24% | Percent inhibition of PSA expression (PSA mRNA; complete medium, 13.4 nM): 35% | Percent inhibition of PSA expression (PSA mRNA; complete medium, 40 nM): 46% | TMPRSS2 mRNA levels in LMR20 cells (TMPRSS2 mRNA [1]): reduced PSA levels and TMPRSS2 more extensively than the LNA gapmer ISIS 554221 or MDV3100 | Percent inhibition of TMPRSS2 expression (TMPRSS2 mRNA [2]; CSS + DHT medium, 1.34 nM): 0% | Percent inhibition of TMPRSS2 expression (TMPRSS2 mRNA [2]; CSS + DHT medium, 4.0 nM): 21% | Percent inhibition of TMPRSS2 expression (TMPRSS2 mRNA [2]; CSS + DHT medium, 13.4 nM): 49% | Percent inhibition of TMPRSS2 expression (TMPRSS2 mRNA [2]; CSS + DHT medium, 40 nM): 57% | Percent inhibition of TMPRSS2 expression (TMPRSS2 mRNA [2]; complete medium, 1.34 nM): 0% | Percent inhibition of TMPRSS2 expression (TMPRSS2 mRNA [2]; complete medium, 4.0 nM): 0% | Percent inhibition of TMPRSS2 expression (TMPRSS2 mRNA [2]; complete medium, 13.4 nM): 0% | Percent inhibition of TMPRSS2 expression (TMPRSS2 mRNA [2]; complete medium, 40 nM): 4% | Percent inhibition of PSA expression compared to the control group in 8 hours ([3]; 0.04 μM): 12% | Percent inhibition of PSA expression compared to the control group in 24 hours ([3]; 0.04 μM): 27% | Percent inhibition of PSA expression compared to the control group in 48 hours ([3]; 0.04 μM): 20% | Percent inhibition of PSA expression compared to the control group in 8 hours ([3]; 0.2 μM): 0% | Percent inhibition of PSA expression compared to the control group in 24 hours ([3]; 0.2 μM): 46% | Percent inhibition of PSA expression compared to the control group in 48 hours ([3]; 0.2 μM): 61% | Percent inhibition of PSA expression compared to the control group in 8 hours ([3]; 1 μM): 3% | Percent inhibition of PSA expression compared to the control group in 24 hours ([3]; 1 μM): 56% | Percent inhibition of PSA expression compared to the control group in 48 hours ([3]; 1 μM): 71% | Percent inhibition of PSA expression compared to the control group in 8 hours ([3]; 5.0 μM): 1% | Percent inhibition of PSA expression compared to the control group in 24 hours ([3]; 5.0 μM): 60% | Percent inhibition of PSA expression compared to the control group in 48 hours ([3]; 5.0 μM): 80% | PSA expression ([3]; time course): reduced PSA and TMPRSS2 expression in the cells relative to the control set at the 24 hr and 48 hr time points | Percent expression of AR (AR mRNA; 0.04 μM): 88% | Percent expression of AR (AR mRNA; 0.2 μM): 57% | Percent expression of AR (AR mRNA; 1 μM): 20% | Percent expression of AR (AR mRNA; 5.0 μM): 15% | Percent expression of AR in C4-2 cells cultured in complete medium (AR mRNA; 0.04 μM): 48% | Percent expression of AR in C4-2 cells cultured in complete medium (AR mRNA; 0.2 μM): 13% | Percent expression of AR in C4-2 cells cultured in complete medium (AR mRNA; 1 μM): 8% | Percent expression of AR in C4-2 cells cultured in complete medium (AR mRNA; 5.0 μM): 8%
